Nine compounds from patent US7534763B2 (Bristol-Myers Squibb Company, priority 2004, dated 2009) can be followed below.

Holding throughout (type): in vivo
Series [1] can be described thus: Dog pharmacokinetic study (iv and sc, solution vehicles). The conditions noted are these: vehicle propylene glycol/pH 7.4 phosphate buffer (1:1); for AUC: male, beagle, dog, plasma, sc, 67 ug/kg, Table II, read-out: Exposure in dogs (sc@67 μg/kg). As for the experimental part:
The pharmacokinetic parameters of the compound of SEQ ID NO:9 were determined in male beagle dogs (n=4, 14±1 kg). Following an overnight fast, each animal received the compound of SEQ ID NO:9 either as an intravenous bolus via femoral vein (67 μg/kg) or by subcutaneous injection given at near the shoulder blades (67 μg/kg). Each animal received both intravenous and subcutaneous doses with a one-week washout between doses following a crossover design. […] Serial blood samples were collected in EDTA-containing microcentrifuge tubes at predose, 0.083, 0.25, 0.5, 0.75, 1, 2, 4, 6, 8, 24, and 30 hours post-dose after intravenous administration; at predose, 0.25, 0.5, 0.75, 1, 2, 4, 6, 8, 24, and 30 hours post-dose after subcutaneous administration. Approximately 0.3 mL of blood was collected at each time point. Blood samples were immediately centrifuged at 4° C. The obtained plasma was frozen with dry ice and stored at −20° C. Plasma drug levels were determined using the LC-MS/MS assay described above.
Plasma samples from in vivo dog study were prepared for analysis by precipitating plasma proteins with two volumes of acetonitrile containing an internal standard. The samples were vortex mixed and removed the precipitated proteins by centrifugation. The resulting supernatants were transferred to a 96-well plate and 10 μL were injected for analysis. Samples were prepared with the Packard Multiprobe II and Quadra 96 Liquid Handling System.
The HPLC system consisted of two Shimadzu LC10AD pumps (Columbia, Md.), a CTC PAL autosampler (Leap Technologies, Switzerland). The column used was a YMC Hydrosphere C18 (2.0×50 mm, 3 μm) (YMC, Inc., Milford, Ma.). The column temperature was maintained at 50° C. and the flow rate was 0.3 mL/minute. The mobile phase A consisted of 10 mM ammonium formate and 0.1% formic acid in water and mobile phase B consisted of 0.1% formic acid in acetonitrile. The initial mobile phase composition was 5% B, and remained at 5% B for one minute to equilibrate the column. The composition was ramped to 95% B over two minutes and held there for one additional minute. The mobile phase was then returned to initial conditions in one minute. Total analysis time was five minutes. A switching valve was used. The eluents between 0-1 minute were diverted to the waste.
The HPLC was interfaced to a Sciex API 4000 mass spectrometer, (Applied Biosystems, Foster City, Calif.) and was equipped with a TurboIonspray ionization source. Ultra high purity nitrogen was used as the nebulizing and turbo gas. The temperature of turbo gas was set at 300° C. and the interface heater was set at 60° C. Data acquisition utilized selected reaction monitoring (SRM). Ions representing the (M+2H)^2+ species for the compound of SEQ ID NO:9, and (M+2H)^2+ for BMS-501143 (IS) were selected in Q1 and were collisionally dissociated with high purity nitrogen at a pressure of 3.5×10^−3torr to form specific product ions which were subsequently monitored by Q3.
The standard curve concentrations, ranging from 1 to 1000 nM and from 4 to 5000 nM, were used for the in vivo samples obtained from low and high doses, respectively. The curves were fitted with a quadratic regression weighted by reciprocal […]. Standards were analyzed in duplicate. Quality control (QC) samples, prepared in blank matrix at the same concentrations as the standard were also analyzed in each analytical set. For the compound of SEQ ID NO:9, the calculated concentrations of more than 80% of the QCs were within 20% of nominal concentration, indicating acceptable assay performance.
The compound of SEQ ID NO:9 plasma concentration vs. time data were analyzed by noncompartmental methods using the […]™ software program. The Cmax and Tmax values were recorded directly from experimental observations. The AUC0-n and AUCtot values were calculated using a combination of linear and log trapezoidal summations. […]

The nature of series [2]: Exposure during ipGTT in ob/ob mice. The following applies: sc. As for the experimental part: (§1) Peptides were dissolved in an appropriate vehicle at a concentration in nmol/ml equivalent to the dose that was to be administered in nmol/kg so that each mouse would receive the same volume/weight of dosing solution. Male C57BL/6J-ob/ob mice (10 weeks old) were randomized into groups of 6 mice per group based on fed plasma glucose and body weight. After an overnight fast, mice were weighed and placed in the experimental lab. After 30 min in the environment, the mice were bled via tail tip at −30 min and immediately injected subcutaneously (sc) with vehicle or the peptide dissolved in vehicle (0.1 ml solution/100 g body weight). At time 0 the mice were bled and then injected intraperitoneally with 50% glucose (2 g/kg) to initiate the intraperitoneal glucose tolerance test (ipGTT). The mice were bled 30, 60, 120 and 180 min after the glucose injection. Blood samples were drawn into potassium EDTA, placed on ice during the study and subsequently centrifuged for 10 min at 3000 rpm at 4° C. Plasma samples were diluted 11-fold for glucose analysis in the Cobas System. Another 5 μl plasma sample was diluted 5-fold with 20 μl of Sample Diluent (Insulin ELISA assay kit, Crystal Chem Inc.) and stored at −20° C. for subsequent analysis using the Ultra Sensitive Mouse Insulin ELISA kit (Crystal Chem Inc.).

Another series has as its system ob/ob mice. Description: intraperitoneal glucose tolerance test (ipGTT) after sc injection in ob/ob mice (plasma glucose, insulin). The following applies: for % AUC Reduction in Plasma Glucose in an IP Glucose Tolerance Test after SC Injection of Compound / effect on postprandial plasma glucose (in words): ob/ob mice; for % AUC Reduction in Plasma Glucose in an IP Glucose Tolerance Test after SC Injection of Compound: 10 nmol/kg, vs vehicle group; for effect on postprandial plasma glucose (in words): sc, ipGTT 0-180 or 210 min; for Potency in ob/ob mice, ED50: sc injection, ipGTT, plasma glucose AUC. As for the experimental part:
as §1

*1 amine or outer side, *2 acyl side, *3 side chain or, on linkers, in order; H or OH if unused. Where a SMILES comes first, the peptide text is derived from it. [ ]: non-standard residue; d: D form. The star is where a group is joined. ξ: configuration not given here. Ala(6-(2-MePh)pyridin-3-yl) = Cc1ccccc1-c1ccc(C[C@H](N)C(=O)O)cn1; Bip(2'-Et-4'-OMe) = CCc1cc(OC)ccc1-c1ccc(C[C@H](N)C(=O)O)cc1; Lactoyl(3-(imidazol-4-yl)) = O=C([C@@H](O)Cc1c[nH]cn1)*; X2 = Cc1ccccc1-c1ncc(C[C@H](N[*:1])C(=O)[*:2])cn1; Bip(2'-Me) = Cc1ccccc1-c1ccc(C[C@H](N)C(=O)O)cc1; αMePhe(2,6-F2) = C[C@](N)(Cc1c(F)cccc1F)C(=O)O; αMePhe(2-F) = C[C@](N)(Cc1ccccc1F)C(=O)O; ξαMePhe(2-F) = CC(N)(Cc1ccccc1F)C(=O)O; Thr(3ξ) = CC(O)[C@H](N)C(=O)O; αMeP = C[C@@]1(C(=O)O)CCCN1; dNMeA = CN[C@H](C)C(=O)O; ξαMeP = CC1(C(=O)O)CCCN1; Aib = CC(C)(N)C(=O)O; Moc = COC(=O)*

For `CCc1cc(OC)ccc1-c1ccc(C[C@H](NC(=O)[C@H](CC(=O)O)NC(=O)[C@H](CO)NC(=O)[C@@H](NC(=O)[C@](C)(Cc2ccccc2F)NC(=O)[C@@H](NC(=O)CNC(=O)[C@H](CCC(=O)O)NC(=O)C(C)(C)NC(=O)[C@@H](N)Cc2c[nH]cn2)C(C)O)C(C)O)C(=O)N[C@@H](Cc2ccc(-c3ccccc3C)cc2)C(N)=O)cc1` (some centres unmarked) [Compound I, reference compound] (H-H[Aib]EG[Thr(3ξ)][αMePhe(2-F)][Thr(3ξ)]SD[Bip(2'-Et-4'-OMe)][Bip(2'-Me)]-NH2), the “Exposure in dogs (sc@67 μg/kg)” value in series [1] (Table I) turned out to be 0.089 µM·h. Moreover, the AUC in series [1] was 0.089 µM·h. Also, in series [2], the “Exposure/dose during ipGTT in ob/ob mice” value stood at 22 nM * h/nmol/kg. In the series with ob/ob mice, the “% AUC Reduction in Plasma Glucose in an IP Glucose Tolerance Test after SC Injection of Compound” value is −15% (p = 0.247, NS); the “effect on postprandial plasma glucose (in words)” value is reported as “decreasing in a dose-dependent manner”; the “Potency in ob/ob mice, ED50” value is reported as “ED50 = 50 nmoles/kg”. Besides, the “Potency in ob/ob mice, ED50” value in the series on ob/ob mice (listed as compound I) amounted to 50 nmol/kg.

With `CCc1cc(OC)ccc1-c1ccc(C[C@H](NC(=O)[C@H](CC(=O)O)NC(=O)[C@H](CO)NC(=O)[C@@H](NC(=O)[C@](C)(Cc2ccccc2F)NC(=O)[C@@H](NC(=O)CNC(=O)[C@H](CCC(=O)O)NC(=O)[C@@H](C)N(C)C(=O)[C@@H](N)Cc2c[nH]cn2)[C@@H](C)O)[C@@H](C)O)C(=O)N[C@@H](Cc2ccc(-c3ccccc3C)nc2)C(N)=O)cc1` [SEQ ID NO: 119] (H-H[dNMeA]EGT[αMePhe(2-F)]TSD[Bip(2'-Et-4'-OMe)][Ala(6-(2-MePh)pyridin-3-yl)]-NH2), the AUC in series [1] amounted to 1.26 µM·h.

As to `CCc1cc(OC)ccc1-c1ccc(C[C@H](NC(=O)[C@H](CC(=O)O)NC(=O)[C@H](Cc2c[nH]cn2)NC(=O)[C@@H](NC(=O)[C@](C)(Cc2ccccc2F)NC(=O)[C@@H](NC(=O)CNC(=O)[C@H](CCC(=O)O)NC(=O)[C@]2(C)CCCN2C(=O)[C@@H](N)Cc2c[nH]cn2)[C@@H](C)O)[C@@H](C)O)C(=O)N[C@@H](Cc2ccc(-c3ccccc3C)nc2)C(N)=O)cc1` [SEQ ID NO: 120] (H-H[αMeP]EGT[αMePhe(2-F)]THD[Bip(2'-Et-4'-OMe)][Ala(6-(2-MePh)pyridin-3-yl)]-NH2), the AUC in series [1] was 1.12 µM·h.

For `CCc1cc(OC)ccc1-c1ccc(C[C@H](NC(=O)[C@H](CC(=O)O)NC(=O)[C@H](CO)NC(=O)[C@@H](NC(=O)[C@](C)(Cc2ccccc2F)NC(=O)[C@@H](NC(=O)CNC(=O)[C@H](CCC(=O)O)NC(=O)C(C)(C)NC(=O)[C@@H](N)Cc2c[nH]cn2)[C@@H](C)O)[C@@H](C)O)C(=O)N[C@@H](Cc2cnc(-c3ccccc3C)nc2)C(N)=O)cc1` [SEQ ID NO: 130] (H-H[Aib]EGT[αMePhe(2-F)]TSD[Bip(2'-Et-4'-OMe)][X2]-NH2), the AUC in series [1] is 0.541 µM·h.

On to `CCc1cc(OC)ccc1-c1ccc(C[C@H](NC(=O)[C@H](CC(=O)O)NC(=O)[C@H](CO)NC(=O)[C@@H](NC(=O)C(C)(Cc2ccccc2F)NC(=O)[C@@H](NC(=O)CNC(=O)[C@H](CCC(=O)O)NC(=O)C2(C)CCCN2C(=O)[C@H](Cc2c[nH]cn2)NC(=O)OC)[C@@H](C)O)[C@@H](C)O)C(=O)N[C@@H](Cc2ccc(-c3ccccc3C)nc2)C(N)=O)cc1` (some centres unmarked) [SEQ ID NO: 139] (Moc-H[ξαMeP]EGT[ξαMePhe(2-F)]TSD[Bip(2'-Et-4'-OMe)][Ala(6-(2-MePh)pyridin-3-yl)]-NH2), for which the AUC in series [1] came to 1.6 µM·h. Also, the “% AUC Reduction in Plasma Glucose in an IP Glucose Tolerance Test after SC Injection of Compound” value in the series on ob/ob mice was −63% (p < 0.01).

Take `CCc1cc(OC)ccc1-c1ccc(C[C@H](NC(=O)[C@H](CC(=O)O)NC(=O)[C@H](CO)NC(=O)[C@@H](NC(=O)[C@](C)(Cc2c(F)cccc2F)NC(=O)[C@@H](NC(=O)CNC(=O)[C@H](CCC(=O)O)NC(=O)[C@]2(C)CCCN2C(=O)[C@H](Cc2c[nH]cn2)NC(=O)OC)[C@@H](C)O)[C@@H](C)O)C(=O)N[C@@H](Cc2ccc(-c3ccccc3C)nc2)C(N)=O)cc1` [SEQ ID NO: 140] (Moc-H[αMeP]EGT[αMePhe(2,6-F2)]TSD[Bip(2'-Et-4'-OMe)][Ala(6-(2-MePh)pyridin-3-yl)]-NH2): the AUC in series [1] came out at 0.283 µM·h.

As for `CCc1cc(OC)ccc1-c1ccc(C[C@H](NC(=O)[C@H](CC(=O)O)NC(=O)[C@H](CO)NC(=O)[C@@H](NC(=O)[C@](C)(Cc2ccccc2F)NC(=O)[C@@H](NC(=O)CNC(=O)[C@H](CCC(=O)O)NC(=O)[C@@H](C)NC(=O)[C@@H](N)Cc2c[nH]cn2)[C@@H](C)O)[C@@H](C)O)C(=O)N[C@@H](Cc2ccc(-c3ccccc3C)nc2)C(N)=O)cc1` [SEQ ID NO: 149] (H-H[dA]EGT[αMePhe(2-F)]TSD[Bip(2'-Et-4'-OMe)][Ala(6-(2-MePh)pyridin-3-yl)]-NH2), the AUC in series [1] is 0.94 µM·h.

Regarding `CCc1cc(OC)ccc1-c1ccc(C[C@H](NC(=O)[C@H](CC(=O)O)NC(=O)[C@H](CO)NC(=O)[C@@H](NC(=O)[C@](C)(Cc2ccccc2F)NC(=O)[C@@H](NC(=O)CNC(=O)[C@H](Cc2c[nH]cn2)NC(=O)C(C)(C)NC(=O)[C@@H](N)Cc2c[nH]cn2)[C@@H](C)O)[C@@H](C)O)C(=O)N[C@@H](Cc2ccc(-c3ccccc3C)nc2)C(N)=O)cc1` [SEQ ID NO: 150] (H-H[Aib]HGT[αMePhe(2-F)]TSD[Bip(2'-Et-4'-OMe)][Ala(6-(2-MePh)pyridin-3-yl)]-NH2), in series [1], the AUC amounted to 0.979 µM·h.

With `CCc1cc(OC)ccc1-c1ccc(C[C@H](NC(=O)[C@H](CC(=O)O)NC(=O)[C@H](Cc2c[nH]cn2)NC(=O)[C@@H](NC(=O)C(C)(Cc2ccccc2F)NC(=O)[C@@H](NC(=O)CNC(=O)[C@H](CCC(=O)O)NC(=O)C2(C)CCCN2C(=O)[C@@H](O)Cc2c[nH]cn2)[C@@H](C)O)[C@@H](C)O)C(=O)N[C@@H](Cc2ccc(-c3ccccc3C)nc2)C(N)=O)cc1` (some centres unmarked) [SEQ ID NO: 151] ({Lactoyl(3-(imidazol-4-yl))}-[ξαMeP]EGT[ξαMePhe(2-F)]THD[Bip(2'-Et-4'-OMe)][Ala(6-(2-MePh)pyridin-3-yl)]-NH2), the “Exposure/dose during ipGTT in ob/ob mice” value in series [2] is given as 16 nM * h/nmol/kg. For the same compound, in the series on ob/ob mice, the “effect on postprandial plasma glucose (in words)” value is “statistically significant decrease”.
